Assay results taken from patent US12493040B2, “Cancer detection method using sense of smell of nematode” (HIROTSU BIO SCIENCE INC., priority 2013, dated 2025).

Tested on: RNAi-treated eri-1 (mg366) nematodes
Experiment: RNAi screening of olfactory receptor genes: chemotaxis assay of RNAi-treated nematodes to odorants
Format: in vivo, Caenorhabditis elegans
Conditions: low concentration of attractant
Procedure, shortened: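 eri-1 (mg366) worms knocked down by feeding RNAi (Ahringer library) on IPTG/ampicillin NGM plates with E. coli for 4 days, then tested for chemotaxis, 30–50 worms per assay. Odorants at 1 μl of 10^−3 or 10^−4 dilution, or 1 and 5 μl undiluted. Hits scored by z score, thresholds ±1.96 (P<0.05) or ±0.96.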

c1cnccn1 [pyrazine]
chemotaxis index (Control nematodes): 0.49 ± 0.019 | chemotaxis index (srh-10 RNAi-treated nematodes): 0.67 | chemotaxis index (srh-11 RNAi-treated nematodes): 0.87 | chemotaxis index (srh-15 RNAi-treated nematodes): 0.78 | chemotaxis index (srh-16 RNAi-treated nematodes): 0.82 | chemotaxis index (srh-18 RNAi-treated nematodes): 0.73 | chemotaxis index (srh-19 RNAi-treated nematodes): 0.33 | chemotaxis index (srh-22 RNAi-treated nematodes): 0.82 | chemotaxis index (srh-23 RNAi-treated nematodes): 0.43 | chemotaxis index (srh-24 RNAi-treated nematodes): 0.57 | chemotaxis index (srh-25 RNAi-treated nematodes): 0.64 | chemotaxis index (srh-27 RNAi-treated nematodes): 0.32 | chemotaxis index (srh-28 RNAi-treated nematodes): 0.23 | chemotaxis index (srh-36 RNAi-treated nematodes): 0.53 | chemotaxis index (srh-37 RNAi-treated nematodes): 0.88 | chemotaxis index (srh-39 RNAi-treated nematodes): 0.11 | chemotaxis index (srh-40 RNAi-treated nematodes): 0.51 | chemotaxis index (srh-41 RNAi-treated nematodes): 0.71 | chemotaxis index (srh-44 RNAi-treated nematodes): 0.44 | chemotaxis index (srh-45 RNAi-treated nematodes): 0.74 | chemotaxis index (srh-46 RNAi-treated nematodes): −0.04 | chemotaxis index (srh-48 RNAi-treated nematodes): 0.15 | chemotaxis index (srh-49 RNAi-treated nematodes): 0.52 | chemotaxis index (srh-50 RNAi-treated nematodes): 0.83 | chemotaxis index (srh-51 RNAi-treated nematodes): 0.31 | chemotaxis index (srh-52 RNAi-treated nematodes): 0.55 | chemotaxis index (srh-55 RNAi-treated nematodes): 0.56 | chemotaxis index (srh-59 RNAi-treated nematodes): 0.04 | chemotaxis index (srh-60 RNAi-treated nematodes): 0.52 | chemotaxis index (srh-61 RNAi-treated nematodes): 0.27 | chemotaxis index (srh-67 RNAi-treated nematodes): 0.39 | chemotaxis index (srh-68 RNAi-treated nematodes): 0.36 | chemotaxis index (srh-69 RNAi-treated nematodes): 0.35 | chemotaxis index (srh-70 RNAi-treated nematodes): 0.41 | chemotaxis index (srh-71 RNAi-treated nematodes): 0.56 | chemotaxis index (srh-72 RNAi-treated nematodes): 0.50 | chemotaxis index (srh-74 RNAi-treated nematodes): 0.26 | chemotaxis index (srh-75 RNAi-treated nematodes): 0.71 | chemotaxis index (srh-77 RNAi-treated nematodes): 0.44 | chemotaxis index (srh-79 RNAi-treated nematodes): 0.12 | chemotaxis index (srh-80 RNAi-treated nematodes): 0.40 | chemotaxis index (srh-82 RNAi-treated nematodes): 0.31 | chemotaxis index (srh-83 RNAi-treated nematodes): 0.38 | chemotaxis index (srh-97 RNAi-treated nematodes): 0.66 | chemotaxis index (srh-99 RNAi-treated nematodes): 0.29 | chemotaxis index (srh-100 RNAi-treated nematodes): 0.30 | chemotaxis index (srh-104 RNAi-treated nematodes): −0.18 | chemotaxis index (srh-105 RNAi-treated nematodes): 0.32 | chemotaxis index (srh-109 RNAi-treated nematodes): 0.32 | chemotaxis index (srh-111 RNAi-treated nematodes): −0.23 | chemotaxis index (srh-113 RNAi-treated nematodes): 0.35 | chemotaxis index (srh-115 RNAi-treated nematodes): 0.19 | chemotaxis index (srh-116 RNAi-treated nematodes): 0.35 | chemotaxis index (srh-118 RNAi-treated nematodes): 0.36 | chemotaxis index (srh-119 RNAi-treated nematodes): 0.37 | chemotaxis index (srh-120 RNAi-treated nematodes): 0.54 | chemotaxis index (srh-122 RNAi-treated nematodes): 0.47 | chemotaxis index (srh-123 RNAi-treated nematodes): 0.63 | chemotaxis index (srh-125 RNAi-treated nematodes): 0.39 | chemotaxis index (srh-128 RNAi-treated nematodes): 0.54 | chemotaxis index (srh-129 RNAi-treated nematodes): 0.71 | chemotaxis index (srh-130 RNAi-treated nematodes): 0.22 | chemotaxis index (srh-214 RNAi-treated nematodes): 0.72 | chemotaxis index (srh-216 RNAi-treated nematodes): 0.60 | chemotaxis index (srh-217 RNAi-treated nematodes): 0.94 | chemotaxis index (srh-220 RNAi-treated nematodes): 0.40 | chemotaxis index (srh-222 RNAi-treated nematodes): 0.65 | chemotaxis index (srh-223 RNAi-treated nematodes): 0.43 | chemotaxis index (srh-227 RNAi-treated nematodes): 0.35 | chemotaxis index (srh-229 RNAi-treated nematodes): 0.09 | chemotaxis index (srh-233 RNAi-treated nematodes): 0.49 | chemotaxis index (srh-235 RNAi-treated nematodes): 0.73 | chemotaxis index (srh-236 RNAi-treated nematodes): 0.44 | chemotaxis index (srh-239 RNAi-treated nematodes): 0.54 | chemotaxis index (srh-241 RNAi-treated nematodes): 0.78 | chemotaxis index (srh-243 RNAi-treated nematodes): 0.48 | chemotaxis index (srh-244 RNAi-treated nematodes): 0.34 | chemotaxis index (srh-247 RNAi-treated nematodes): 0.49 | chemotaxis index (srh-250 RNAi-treated nematodes): 0.55 | chemotaxis index (srh-251 RNAi-treated nematodes): 0.32 | chemotaxis index (srh-252 RNAi-treated nematodes): 0.87 | chemotaxis index (srh-258 RNAi-treated nematodes): 0.44 | chemotaxis index (srh-261 RNAi-treated nematodes): 0.57 | chemotaxis index (srh-264 RNAi-treated nematodes): 0.85 | chemotaxis index (srh-266 RNAi-treated nematodes): −0.14 | chemotaxis index (srh-274 RNAi-treated nematodes): 0.12 | chemotaxis index (srh-275 RNAi-treated nematodes): 0.42 | chemotaxis index (srh-276 RNAi-treated nematodes): 0.44 | chemotaxis index (srh-277 RNAi-treated nematodes): 0.81 | chemotaxis index (srh-279 RNAi-treated nematodes): 0.37 | chemotaxis index (srh-281 RNAi-treated nematodes): 0.01 | chemotaxis index (srh-282 RNAi-treated nematodes): 0.55 | chemotaxis index (srh-283 RNAi-treated nematodes): 0.26 | chemotaxis index (srh-284 RNAi-treated nematodes): 0.49 | chemotaxis index (srh-291 RNAi-treated nematodes): 0.82 | chemotaxis index (srh-292 RNAi-treated nematodes): 0.43 | chemotaxis index (srh-293 RNAi-treated nematodes): 0.59 | chemotaxis index (srh-297 RNAi-treated nematodes): 0.29 | chemotaxis index (srh-298 RNAi-treated nematodes): 0.33 | chemotaxis index (srh-308 RNAi-treated nematodes): 0.15
